What was measured:
[1] = Hoechst 33342 nuclear staining; type: cell-based; conditions: for Hoechst 33342 nuclear staining score, H460: H460 cells; for Hoechst 33342 nuclear staining score, HeLa: HeLa cells; for Hoechst 33342 nuclear staining score, Jily: Jily cells; for Hoechst 33342 nuclear staining score, Jurkat: Jurkat cells; for Hoechst 33342 nuclear staining score, MRC5: MRC5 cells;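 for all read-outs here: apoptotic nuclei scored 0 none 1 weak under 50% of cells 2 strong over 50% of cells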
How it was run: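 After a further 30 min incubation, plates were inspected on a standard inverted fluorescence microscope. The fraction of apoptotic nuclei and other apoptosis-specific morphology were scored as 0 for no activity, 1 for weak activity in less than 50% of the cells, and 2 for strong activity in more than 50% of the cells.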

Jily = assay: MTS proliferation assay; type: cell-based; conditions: 72 h
How it was run: (§1)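 Four-point treatment (0.3–10 μM final) ran 72 h in complete medium, with the compound-containing addition holding no more than 5% DMSO. Metabolic activity was then developed with MTS reagent over 3 h and quantified by absorbance (492 nm).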

MRC5 = assay: MTS proliferation assay; type: cell-based; conditions: MRC5, 72 h
How it was run: as §1

Jurkat = assay: MTS proliferation assay; type: cell-based, human; conditions: 72 h
How it was run: as §1

HeLa = assay: MTS proliferation assay; type: cell-based, human; conditions: 72 h
How it was run: as §1

SMILES: COc1cc(-c2cc(-c3cccnc3)cn2S(=O)(=O)/C=C/c2ccccc2)cc(OC)c1OC [Example 89]
- Hoechst 33342 nuclear staining score, H460 ([1]; conc 0.1): 0
- Hoechst 33342 nuclear staining score, H460 ([1]; conc 0.3): 0
- Hoechst 33342 nuclear staining score, H460 ([1]; conc 1): 0
- Hoechst 33342 nuclear staining score, H460 ([1]; conc 3): 0
- Hoechst 33342 nuclear staining score, HeLa ([1]; conc 0.1): 0
- Hoechst 33342 nuclear staining score, HeLa ([1]; conc 0.3): 0
- Hoechst 33342 nuclear staining score, HeLa ([1]; conc 1): 0
- Hoechst 33342 nuclear staining score, HeLa ([1]; conc 3): 0
- Hoechst 33342 nuclear staining score, Jily ([1]; conc 0.1): 0
- Hoechst 33342 nuclear staining score, Jily ([1]; conc 0.3): 0
- Hoechst 33342 nuclear staining score, Jily ([1]; conc 1): 0
- Hoechst 33342 nuclear staining score, Jily ([1]; conc 3): 1 (weak activity comprising less than 50% of the cells)
- Hoechst 33342 nuclear staining score, Jurkat ([1]; conc 0.1): 0
- Hoechst 33342 nuclear staining score, Jurkat ([1]; conc 0.3): 0
- Hoechst 33342 nuclear staining score, Jurkat ([1]; conc 1): 0
- Hoechst 33342 nuclear staining score, Jurkat ([1]; conc 3): 1 (weak activity comprising less than 50% of the cells)
- Hoechst 33342 nuclear staining score, MRC5 ([1]; conc 0.1): 0
- Hoechst 33342 nuclear staining score, MRC5 ([1]; conc 0.3): 0
- Hoechst 33342 nuclear staining score, MRC5 ([1]; conc 1): 0
- Hoechst 33342 nuclear staining score, MRC5 ([1]; conc 3): 0
- Hoechst 33342 nuclear staining score, PBLs ([1]; conc 0.1): 0
- Hoechst 33342 nuclear staining score, PBLs ([1]; conc 0.3): 0
- Hoechst 33342 nuclear staining score, PBLs ([1]; conc 1): 0
- Hoechst 33342 nuclear staining score, PBLs ([1]; conc 3): 0
- IC50 (Jily): > 1000 nM
- IC50 (MRC5): > 1000 nM
- IC50 (Jurkat): > 1000 nM
- IC50 (HeLa): > 1000 nM

SMILES: COc1cc(-c2cc(-c3cccnc3)cn2S(=O)(=O)c2cccs2)cc(OC)c1OC [Example 90]
- Hoechst 33342 nuclear staining score, H460 ([1]; conc 0.1): 0
- Hoechst 33342 nuclear staining score, H460 ([1]; conc 0.3): 0
- Hoechst 33342 nuclear staining score, H460 ([1]; conc 1): 0
- Hoechst 33342 nuclear staining score, H460 ([1]; conc 3): 2 (strong activity comprising more than 50% of the cells)
- Hoechst 33342 nuclear staining score, HeLa ([1]; conc 0.1): 0
- Hoechst 33342 nuclear staining score, HeLa ([1]; conc 0.3): 0
- Hoechst 33342 nuclear staining score, HeLa ([1]; conc 1): 0
- Hoechst 33342 nuclear staining score, HeLa ([1]; conc 3): 2 (strong activity comprising more than 50% of the cells)
- Hoechst 33342 nuclear staining score, Jily ([1]; conc 0.1): 0
- Hoechst 33342 nuclear staining score, Jily ([1]; conc 0.3): 0
- Hoechst 33342 nuclear staining score, Jily ([1]; conc 1): 1 (weak activity comprising less than 50% of the cells)
- Hoechst 33342 nuclear staining score, Jily ([1]; conc 3): 1 (weak activity comprising less than 50% of the cells)
- Hoechst 33342 nuclear staining score, Jurkat ([1]; conc 0.1): 0
- Hoechst 33342 nuclear staining score, Jurkat ([1]; conc 0.3): 0
- Hoechst 33342 nuclear staining score, Jurkat ([1]; conc 1): 2 (strong activity comprising more than 50% of the cells)
- Hoechst 33342 nuclear staining score, Jurkat ([1]; conc 3): 2 (strong activity comprising more than 50% of the cells)
- Hoechst 33342 nuclear staining score, MRC5 ([1]; conc 0.1): 0
- Hoechst 33342 nuclear staining score, MRC5 ([1]; conc 0.3): 0
- Hoechst 33342 nuclear staining score, MRC5 ([1]; conc 1): 0
- Hoechst 33342 nuclear staining score, MRC5 ([1]; conc 3): 0
- Hoechst 33342 nuclear staining score, PBLs ([1]; conc 0.1): 0
- Hoechst 33342 nuclear staining score, PBLs ([1]; conc 0.3): 0
- Hoechst 33342 nuclear staining score, PBLs ([1]; conc 1): 0
- Hoechst 33342 nuclear staining score, PBLs ([1]; conc 3): 0
- IC50 (Jily): < 1000 nM
- IC50 (MRC5): > 1000 nM
- IC50 (Jurkat): < 1000 nM
- IC50 (HeLa): > 1000 nM

SMILES: COc1cc(-c2cc(-c3cccnc3)cn2S(=O)(=O)c2ccc([N+](=O)[O-])cc2)cc(OC)c1OC [Example 92]
- Hoechst 33342 nuclear staining score, H460 ([1]; conc 0.1): 0
- Hoechst 33342 nuclear staining score, H460 ([1]; conc 0.3): 0
- Hoechst 33342 nuclear staining score, H460 ([1]; conc 1): 0
- Hoechst 33342 nuclear staining score, H460 ([1]; conc 3): 1 (weak activity comprising less than 50% of the cells)
- Hoechst 33342 nuclear staining score, HeLa ([1]; conc 0.1): 0
- Hoechst 33342 nuclear staining score, HeLa ([1]; conc 0.3): 0
- Hoechst 33342 nuclear staining score, HeLa ([1]; conc 1): 0
- Hoechst 33342 nuclear staining score, HeLa ([1]; conc 3): 0
- Hoechst 33342 nuclear staining score, Jily ([1]; conc 0.1): 0
- Hoechst 33342 nuclear staining score, Jily ([1]; conc 0.3): 0
- Hoechst 33342 nuclear staining score, Jily ([1]; conc 1): 0
- Hoechst 33342 nuclear staining score, Jily ([1]; conc 3): 2 (strong activity comprising more than 50% of the cells)
- Hoechst 33342 nuclear staining score, Jurkat ([1]; conc 0.1): 0
- Hoechst 33342 nuclear staining score, Jurkat ([1]; conc 0.3): 0
- Hoechst 33342 nuclear staining score, Jurkat ([1]; conc 1): 0
- Hoechst 33342 nuclear staining score, Jurkat ([1]; conc 3): 2 (strong activity comprising more than 50% of the cells)
- Hoechst 33342 nuclear staining score, MRC5 ([1]; conc 0.1): 0
- Hoechst 33342 nuclear staining score, MRC5 ([1]; conc 0.3): 0
- Hoechst 33342 nuclear staining score, MRC5 ([1]; conc 1): 0
- Hoechst 33342 nuclear staining score, MRC5 ([1]; conc 3): 0
- Hoechst 33342 nuclear staining score, PBLs ([1]; conc 0.1): 0
- Hoechst 33342 nuclear staining score, PBLs ([1]; conc 0.3): 0
- Hoechst 33342 nuclear staining score, PBLs ([1]; conc 1): 0
- Hoechst 33342 nuclear staining score, PBLs ([1]; conc 3): 0
- IC50 (Jily): > 1000 nM
- IC50 (MRC5): > 1000 nM
- IC50 (Jurkat): > 1000 nM
- IC50 (HeLa): > 1000 nM

SMILES: COc1cc(-c2cc(-c3cccnc3)cn2S(=O)(=O)c2ccc(N)cc2)cc(OC)c1OC [Example 93]
- Hoechst 33342 nuclear staining score, H460 ([1]; conc 0.1): 0
- Hoechst 33342 nuclear staining score, H460 ([1]; conc 0.3): 0
- Hoechst 33342 nuclear staining score, H460 ([1]; conc 1): 0
- Hoechst 33342 nuclear staining score, H460 ([1]; conc 3): 0
- Hoechst 33342 nuclear staining score, HeLa ([1]; conc 0.1): 0
- Hoechst 33342 nuclear staining score, HeLa ([1]; conc 0.3): 0
- Hoechst 33342 nuclear staining score, HeLa ([1]; conc 1): 0
- Hoechst 33342 nuclear staining score, HeLa ([1]; conc 3): 0
- Hoechst 33342 nuclear staining score, Jily ([1]; conc 0.1): 0
- Hoechst 33342 nuclear staining score, Jily ([1]; conc 0.3): 0
- Hoechst 33342 nuclear staining score, Jily ([1]; conc 1): 0
- Hoechst 33342 nuclear staining score, Jily ([1]; conc 3): 0
- Hoechst 33342 nuclear staining score, Jurkat ([1]; conc 0.1): 0
- Hoechst 33342 nuclear staining score, Jurkat ([1]; conc 0.3): 0
- Hoechst 33342 nuclear staining score, Jurkat ([1]; conc 1): 0
- Hoechst 33342 nuclear staining score, Jurkat ([1]; conc 3): 0
- Hoechst 33342 nuclear staining score, MRC5 ([1]; conc 0.1): 0
- Hoechst 33342 nuclear staining score, MRC5 ([1]; conc 0.3): 0
- Hoechst 33342 nuclear staining score, MRC5 ([1]; conc 1): 0
- Hoechst 33342 nuclear staining score, MRC5 ([1]; conc 3): 0
- Hoechst 33342 nuclear staining score, PBLs ([1]; conc 0.1): 0
- Hoechst 33342 nuclear staining score, PBLs ([1]; conc 0.3): 0
- Hoechst 33342 nuclear staining score, PBLs ([1]; conc 1): 0
- Hoechst 33342 nuclear staining score, PBLs ([1]; conc 3): 0
- IC50 (Jily): > 1000 nM
- IC50 (MRC5): > 1000 nM
- IC50 (Jurkat): > 1000 nM
- IC50 (HeLa): > 1000 nM

SMILES: COc1ccc(S(=O)(=O)n2cc(CNc3ccc(N4CCOCC4)cc3)cc2-c2cc(OC)c(OC)c(OC)c2)cc1 [Example 94, 1-p-Methoxyphenylsulfonyl-4-p-morpholinophenylaminomethyl-2-(3,4,5-trimethoxyphenyl)-pyrrole]
- Hoechst 33342 nuclear staining score, H460 ([1]; conc 0.1): 0
- Hoechst 33342 nuclear staining score, H460 ([1]; conc 0.3): 2 (strong activity comprising more than 50% of the cells)
- Hoechst 33342 nuclear staining score, H460 ([1]; conc 1): 2 (strong activity comprising more than 50% of the cells)
- Hoechst 33342 nuclear staining score, H460 ([1]; conc 3): 2 (strong activity comprising more than 50% of the cells)
- Hoechst 33342 nuclear staining score, HeLa ([1]; conc 0.1): 0
- Hoechst 33342 nuclear staining score, HeLa ([1]; conc 0.3): 2 (strong activity comprising more than 50% of the cells)
- Hoechst 33342 nuclear staining score, HeLa ([1]; conc 1): 2 (strong activity comprising more than 50% of the cells)
- Hoechst 33342 nuclear staining score, HeLa ([1]; conc 3): 2 (strong activity comprising more than 50% of the cells)
- Hoechst 33342 nuclear staining score, Jily ([1]; conc 0.1): 0
- Hoechst 33342 nuclear staining score, Jily ([1]; conc 0.3): 2 (strong activity comprising more than 50% of the cells)
- Hoechst 33342 nuclear staining score, Jily ([1]; conc 1): 2 (strong activity comprising more than 50% of the cells)
- Hoechst 33342 nuclear staining score, Jily ([1]; conc 3): 2 (strong activity comprising more than 50% of the cells)
- Hoechst 33342 nuclear staining score, Jurkat ([1]; conc 0.1): 0
- Hoechst 33342 nuclear staining score, Jurkat ([1]; conc 0.3): 2 (strong activity comprising more than 50% of the cells)
- Hoechst 33342 nuclear staining score, Jurkat ([1]; conc 1): 2 (strong activity comprising more than 50% of the cells)
- Hoechst 33342 nuclear staining score, Jurkat ([1]; conc 3): 2 (strong activity comprising more than 50% of the cells)
- Hoechst 33342 nuclear staining score, MRC5 ([1]; conc 0.1): 0
- Hoechst 33342 nuclear staining score, MRC5 ([1]; conc 0.3): 0
- Hoechst 33342 nuclear staining score, MRC5 ([1]; conc 1): 0
- Hoechst 33342 nuclear staining score, MRC5 ([1]; conc 3): 2 (strong activity comprising more than 50% of the cells)
- Hoechst 33342 nuclear staining score, PBLs ([1]; conc 0.1): 0
- Hoechst 33342 nuclear staining score, PBLs ([1]; conc 0.3): 0
- Hoechst 33342 nuclear staining score, PBLs ([1]; conc 1): 0
- Hoechst 33342 nuclear staining score, PBLs ([1]; conc 3): 0
- IC50 (Jily): < 200 nM
- IC50 (MRC5; Homo sapiens): < 200 nM
- IC50 (Jurkat; Homo sapiens): < 200 nM
- IC50 (HeLa; Homo sapiens): < 200 nM
